Counter-ions that a name gives are not always drawn.
Assays:
Assay type in all cases: in vivo
[1] = system: wheat (Triticum aestivum L; TRZAS); assay: Postemergence herbicidal safening, greenhouse, visual injury: wheat
In short: (§1)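 Percent visual injury relative to solvent-blank controls, rated 20-22 d after treatment on a 0 (none) to 100 (complete kill) scale. Expected mixture response came from Colby's equation, Expected=A+B−(A×B/100). Sprays contained 1.5% v/v crop oil concentrate at 187 L/ha.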

[2] = system: barley (Hordeum vulgare L; HORVS); assay: Postemergence herbicidal safening, greenhouse, visual injury: barley
In short: as §1

[3] = system: cleavers (Galium aparine L; GALAP); assay: Postemergence herbicidal activity, greenhouse, visual injury: cleavers; design: key: visual injury, 0–100%: 0 = no injury, 100 = complete kill
In short: as §1

[4] = system: kochia (Kochia scoparia L; KCHSC); assay: Postemergence herbicidal activity, greenhouse, visual injury: kochia; design: key: % visual injury: 0 = no injury, 100 = complete kill
Procedure: (§2) Evaluation of Postemergence Herbicidal Safening in Cereal Crops
(§3) Seeds of the desired test plant species were planted in Sun Gro MetroMix® 306 planting mixture, which typically has a pH of 6.0 to 6.8 and an organic matter content of about 30 percent, in plastic pots with a surface area of 103.2 square centimeters (cm^2). When required to ensure good germination and healthy plants, a fungicide treatment and/or other chemical or physical treatment was applied. The plants were grown for 7-36 days (d) in a greenhouse with an approximate 14-hour (h) photoperiod which was maintained at about 18° C. during the day and 17° C. during the night. Nutrients and water were added on a regular basis and supplemental lighting was provided with overhead metal halide 1000-Watt lamps as necessary. The plants were employed for testing when they reached the second or third true leaf stage.
(§4) Weighed amounts of esters (methyl) or salts (TEA [triethylammonium], K [potassium]) of 4-amino-3-chloro-6-(4-chloro-2-fluoro-3-methoxyphenyl)pyridine-2-carboxylic acid (Compound 1) were dissolved in a volume of 97:3 volume/volume (v/v) acetone/dimethylsulfoxide (DMSO) to obtain stock solutions. […] The concentrated stock solutions were diluted with an aqueous mixture of 1.5% v/v of Agri-dex crop oil concentrate to provide the appropriate application rates. Compound requirements are based upon a 12 mL application volume at a rate of 187 liters per hectare (L/ha). Stocks solutions of the safeners were prepared following the same procedure. Spray solutions of the safeners and experimental compound mixtures were prepared by adding the stock solutions to the appropriate amount of dilution solution to form a 12 mL spray solution with active ingredients in two-way combinations. Formulated compounds were applied to the plant material with an overhead Mandel track sprayer equipped with 8002E nozzles calibrated to deliver 187 L/ha over an application area of 0.503 square meters (m^2) at a spray height of 18 inches (43 centimeters (cm)) above average plant canopy. Control plants were sprayed in the same manner with the solvent blank.
(§5) The treated plants and control plants were placed in a greenhouse as described above and watered by sub-irrigation to prevent wash-off of the test compounds. After 20-22 d, the condition of the test plants as compared with that of the control plants was determined visually and scored on a scale of 0 to 100 percent where 0 corresponds to no injury and 100 corresponds to complete kill.
(§6) Colby's equation was used to determine the herbicidal effects expected from the mixtures (Colby, S. R. Calculation of the synergistic and antagonistic response of herbicide combinations. Weeds 1967, 15, 20-22.).
(§7) The following equation was used to calculate the expected activity of mixtures containing two active ingredients, A and B: Expected=A+B−(A×B/100)
(§8) A=observed efficacy of active ingredient A at the same concentration as used in the mixture.
(§9) B=observed efficacy of active ingredient B at the same concentration as used in the mixture.

[5] = system: purple deadnettle (Lamium purpureum L; LAMPU); assay: Postemergence herbicidal activity, greenhouse, visual injury: purple deadnettle; design: key: visual injury, 0–100%: 0 = no injury, 100 = complete kill
In short: as §1

[6] = system: scented mayweed (Matricaria chamomila L; MATCH); assay: Postemergence herbicidal activity, greenhouse, visual injury: scented mayweed; design: key: % visual injury: 0 = no injury, 100 = complete kill
Procedure: as §2, §3, §4, §5, §6, §7, §8, §9

[7] = system: corn poppy (Papaver rhoeas L; PAPRH); assay: Postemergence herbicidal activity, greenhouse, visual injury: corn poppy
In short: as §1

[8] = system: wild buckwheat (Polygonum convolvulus L; POLCO); assay: Postemergence herbicidal activity, greenhouse, visual injury: wild buckwheat
In short: as §1

[9] = system: Russian thistle (Salsola iberica L; SASKR); assay: Postemergence herbicidal activity, greenhouse, visual injury: Russian thistle; design: key: visual injury, 0–100%: 0 = no injury, 100 = complete kill
In short: as §1

[10] = system: chickweed (Stellaria media L; STEME); assay: Postemergence herbicidal activity, greenhouse, visual injury: chickweed; design: key: visual injury, 0–100%: 0 = no injury, 100 = complete kill
In short: as §1

[11] = system: bird's-eye speedwell (Veronica persica L; VERPE); assay: Postemergence herbicidal activity, greenhouse, visual injury: bird's-eye speedwell; design: key: visual injury, 0–100%: 0 = no injury, 100 = complete kill
In short: as §1

[12] = system: wild pansy (Viola tricolor L; VIOTR); assay: Postemergence herbicidal activity, greenhouse, visual injury: wild pansy; design: key: visual injury, 0–100%: 0 = no injury, 100 = complete kill
In short: as §1

COc1c(Cl)ccc(-c2cc(N)c(Cl)c(C(=O)O)n2)c1F [Compound 1 TEA salt, 4-amino-3-chloro-6-(4-chloro-2-fluoro-3-methoxyphenyl)pyridine-2-carboxylic acid]
TRZAS Ob ([1]; applied alone at 140 g/ha): 26% | TRZAS Ob ([1]; applied alone, 140 g/ha): 26% | HORVS Ob ([2]; applied alone at 140 g/ha): 16% | HORVS Ob ([2]; applied alone, 140 g/ha): 16% | GALAP Ob ([3]; applied alone at 140 g/ha): 100% | GALAP Ob ([3]; applied alone, 140 g/ha): 100 | KCHSC Ob ([4]; applied alone at 140 g/ha): 94% | KCHSC Ob ([4]; applied alone, 140 g/ha): 94 | LAMPU Ob ([5]; applied alone at 140 g/ha): 99% | LAMPU Ob ([5]; applied alone, 140 g/ha): 99 | MATCH Ob ([6]; applied alone at 140 g/ha): 80% | MATCH Ob ([6]; applied alone, 140 g/ha): 80 | PAPRH Ob ([7]; applied alone at 140 g/ha): 100% | PAPRH Ob ([7]; applied alone, 140 g/ha): 100 | POLCO Ob ([8]; applied alone at 140 g/ha): 100% | POLCO Ob ([8]; applied alone, 140 g/ha): 100 | SASKR Ob ([9]; applied alone at 140 g/ha): 88% | SASKR Ob ([9]; applied alone, 140 g/ha): 88 | STEME Ob ([10]; applied alone at 140 g/ha): 94% | STEME Ob ([10]; applied alone, 140 g/ha): 94 | VERPE Ob ([11]; applied alone at 140 g/ha): 85% | VERPE Ob ([11]; applied alone, 140 g/ha): 85 | VIOTR Ob ([12]; applied alone at 140 g/ha): 69% | VIOTR Ob ([12]; applied alone, 140 g/ha): 69

CC1(C)OC(c2ccco2)CN1C(=O)C(Cl)Cl (stereo not drawn) [Furilazole (MON 13900)]
TRZAS Ob ([1]; applied alone, 17.5 g/ha): 0% | TRZAS Ob ([1]; applied alone, 35 g/ha): 0% | TRZAS Ob ([1]; applied alone, 70 g/ha): 0% | TRZAS Ob ([1]; applied alone, 140 g/ha): 0% | HORVS Ob ([2]; applied alone, 17.5 g/ha): 0% | HORVS Ob ([2]; applied alone, 35 g/ha): 0% | HORVS Ob ([2]; applied alone, 70 g/ha): 0% | HORVS Ob ([2]; applied alone, 140 g/ha): 0% | GALAP Ob ([3]; applied alone, 17.5 g/ha): 0 | GALAP Ob ([3]; applied alone, 35 g/ha): 0 | GALAP Ob ([3]; applied alone, 70 g/ha): 0 | GALAP Ob ([3]; applied alone, 140 g/ha): 0 | KCHSC Ob ([4]; applied alone, 17.5 g/ha): 0 | KCHSC Ob ([4]; applied alone, 35 g/ha): 0 | KCHSC Ob ([4]; applied alone, 70 g/ha): 0 | KCHSC Ob ([4]; applied alone, 140 g/ha): 0 | LAMPU Ob ([5]; applied alone, 17.5 g/ha): 0 | LAMPU Ob ([5]; applied alone, 35 g/ha): 0 | LAMPU Ob ([5]; applied alone, 70 g/ha): 0 | LAMPU Ob ([5]; applied alone, 140 g/ha): 0 | MATCH Ob ([6]; applied alone, 17.5 g/ha): 0 | MATCH Ob ([6]; applied alone, 35 g/ha): 0 | MATCH Ob ([6]; applied alone, 70 g/ha): 0 | MATCH Ob ([6]; applied alone, 140 g/ha): 0 | PAPRH Ob ([7]; applied alone, 17.5 g/ha): 0 | PAPRH Ob ([7]; applied alone, 35 g/ha): 0 | PAPRH Ob ([7]; applied alone, 70 g/ha): 0 | PAPRH Ob ([7]; applied alone, 140 g/ha): 0 | POLCO Ob ([8]; applied alone, 17.5 g/ha): 0 | POLCO Ob ([8]; applied alone, 35 g/ha): 0 | POLCO Ob ([8]; applied alone, 70 g/ha): 0 | POLCO Ob ([8]; applied alone, 140 g/ha): 0 | SASKR Ob ([9]; applied alone, 17.5 g/ha): 0 | SASKR Ob ([9]; applied alone, 35 g/ha): 0 | SASKR Ob ([9]; applied alone, 70 g/ha): 0 | SASKR Ob ([9]; applied alone, 140 g/ha): 0 | STEME Ob ([10]; applied alone, 17.5 g/ha): 0 | STEME Ob ([10]; applied alone, 35 g/ha): 0 | STEME Ob ([10]; applied alone, 70 g/ha): 0 | STEME Ob ([10]; applied alone, 140 g/ha): 0 | VERPE Ob ([11]; applied alone, 17.5 g/ha): 0 | VERPE Ob ([11]; applied alone, 35 g/ha): 0 | VERPE Ob ([11]; applied alone, 70 g/ha): 0 | VERPE Ob ([11]; applied alone, 140 g/ha): 0 | VIOTR Ob ([12]; applied alone, 17.5 g/ha): 0 | VIOTR Ob ([12]; applied alone, 35 g/ha): 0 | VIOTR Ob ([12]; applied alone, 70 g/ha): 0 | VIOTR Ob ([12]; applied alone, 140 g/ha): 0

N#C/C(=N\OCC1OCCO1)c1ccccc1 [Oxabetrinil]
TRZAS Ob ([1]; applied alone, 17.5 g/ha): 0% | TRZAS Ob ([1]; applied alone, 35 g/ha): 0% | TRZAS Ob ([1]; applied alone, 70 g/ha): 0% | TRZAS Ob ([1]; applied alone, 140 g/ha): 0% | HORVS Ob ([2]; applied alone, 17.5 g/ha): 0% | HORVS Ob ([2]; applied alone, 35 g/ha): 0% | HORVS Ob ([2]; applied alone, 70 g/ha): 0% | HORVS Ob ([2]; applied alone, 140 g/ha): 0% | GALAP Ob ([3]; applied alone, 17.5 g/ha): 0 | GALAP Ob ([3]; applied alone, 35 g/ha): 0 | GALAP Ob ([3]; applied alone, 70 g/ha): 0 | GALAP Ob ([3]; applied alone, 140 g/ha): 0 | KCHSC Ob ([4]; applied alone, 17.5 g/ha): 0 | KCHSC Ob ([4]; applied alone, 35 g/ha): 0 | KCHSC Ob ([4]; applied alone, 70 g/ha): 0 | KCHSC Ob ([4]; applied alone, 140 g/ha): 0 | LAMPU Ob ([5]; applied alone, 17.5 g/ha): 0 | LAMPU Ob ([5]; applied alone, 35 g/ha): 0 | LAMPU Ob ([5]; applied alone, 70 g/ha): 0 | LAMPU Ob ([5]; applied alone, 140 g/ha): 0 | MATCH Ob ([6]; applied alone, 17.5 g/ha): 0 | MATCH Ob ([6]; applied alone, 35 g/ha): 0 | MATCH Ob ([6]; applied alone, 70 g/ha): 0 | MATCH Ob ([6]; applied alone, 140 g/ha): 0 | PAPRH Ob ([7]; applied alone, 17.5 g/ha): 0 | PAPRH Ob ([7]; applied alone, 35 g/ha): 0 | PAPRH Ob ([7]; applied alone, 70 g/ha): 0 | PAPRH Ob ([7]; applied alone, 140 g/ha): 0 | POLCO Ob ([8]; applied alone, 17.5 g/ha): 0 | POLCO Ob ([8]; applied alone, 35 g/ha): 0 | POLCO Ob ([8]; applied alone, 70 g/ha): 0 | POLCO Ob ([8]; applied alone, 140 g/ha): 0 | SASKR Ob ([9]; applied alone, 17.5 g/ha): 0 | SASKR Ob ([9]; applied alone, 35 g/ha): 0 | SASKR Ob ([9]; applied alone, 70 g/ha): 0 | SASKR Ob ([9]; applied alone, 140 g/ha): 0 | STEME Ob ([10]; applied alone, 17.5 g/ha): 0 | STEME Ob ([10]; applied alone, 35 g/ha): 0 | STEME Ob ([10]; applied alone, 70 g/ha): 0 | STEME Ob ([10]; applied alone, 140 g/ha): 0 | VERPE Ob ([11]; applied alone, 17.5 g/ha): 0 | VERPE Ob ([11]; applied alone, 35 g/ha): 0 | VERPE Ob ([11]; applied alone, 70 g/ha): 0 | VERPE Ob ([11]; applied alone, 140 g/ha): 0 | VIOTR Ob ([12]; applied alone, 17.5 g/ha): 0 | VIOTR Ob ([12]; applied alone, 35 g/ha): 0 | VIOTR Ob ([12]; applied alone, 70 g/ha): 0 | VIOTR Ob ([12]; applied alone, 140 g/ha): 0

Source: patent US8921267B2, “Safening 6-(trisubstituted phenyl)-4-amino-2-pyridinecarboxylate herbicide injury on cereal crops” (Dow AgroSciences LLC, priority 2008, dated 2014)
